Patent US11872221B2, “Treating untreated or treatment-resistant diabetes with glucokinase activator” (HUA Medicine (Shanghai) Ltd., priority 2020, dated 2024)
Read-outs that look alike come from different tables or passages of the source.

Key:
Assay type in all cases: in vivo, human
insulin = assay: Oral glucose tolerance test, insulin response (serum); details: printed in the monotherapy column; apparently combination vs that monotherapy
From the text: (§1) This phase I study accessed the pharmacokinetic interaction between dorzagliatin and sitagliptin in T2DM subjects. This study also evaluated the safety and tolerability of dorzagliatin with simultaneous administration of sitagliptin in T2DM subjects. Moreover, this study accessed the pharmacodynamic responses of glucose, GLP-1, glucagon, insulin, and C-peptide following dorzagliatin, sitagliptin, or simultaneous administration of dorzagliatin and sitagliptin in T2DM subjects.
(§2) Study drugs are each taken 60 (±5) min prior to meals.
(§3) Subjects consumed a 75-gram glucose solution 30 min following study drug dose administration on Days 5, 10 and 15 in lieu of breakfast. Pharmacodynamic (PD) responses were evaluated by measuring GLP-1 and glucagon levels in plasma, and glucose, insulin, and C-peptide in serum within 60 min prior to oral glucose intake and 0.5, 1, 1.5, 2, 2.5, 3 and 4 h after oral glucose intake.

glucose = assay: Oral glucose tolerance test, glucose response (serum); details: for Glucose AUEC0-4h, Mean (SD) / Glucose CEav, Mean (SD) / Glucose CEmax, Mean (SD): baseline corrected, OGTT 75 g glucose 30 min after dose, T2DM subjects, sitagliptin 100 mg QD, dorzagliatin 75 mg BID; for Glucose AUEC0-4h, GMR (%) / Glucose CEav, GMR (%) / Glucose CEmax, GMR (%): printed in the monotherapy column, apparently combination vs that monotherapy
From the text: as §1, §2, §3

C-peptide = assay: Oral glucose tolerance test, C-peptide response (serum); details: for C-peptide CEmax, Mean (SD): baseline corrected, OGTT 75 g glucose 30 min after dose, T2DM subjects, sitagliptin 100 mg QD, dorzagliatin 75 mg BID; for C-peptide AUEC0-4h, GMR (%) / C-peptide CEav, GMR (%) / C-peptide CEmax, GMR (%): printed in the monotherapy column, apparently combination vs that monotherapy
From the text: as §1, §2, §3

[1] = Phase 1 drug-drug interaction study, plasma pharmacokinetics of dorzagliatin and sitagliptin; details: for AUC(0-t) / Cmax: human, plasma, oral, T2DM subjects
From the text: as §1, §2
Blood samples for the determination of dorzagliatin and sitagliptin concentrations and corresponding pharmacokinetic (PK) analysis were collected on Days 5, 10 and 15: pre-dose (within 30 min prior to dosing), and 0.25, 0.5, 1, 1.5, 2, 3, 4, 6, 8, 10, 12, 18, and 24 h post dose.
Dorzagliatin was provided as a film-coated tablets in 75 mg strength for oral administration 60 min prior to a meal. Sitagliptin was provided as JANUVIA® 100 mg tablets for oral administration 60 min prior to a meal. The total duration of participation in the study for each subject was about 59 days (up to 28-day screening period, 12-day run-in period, and 19-day in-clinic period).
The plasma concentration-time data for dorzagliatin and sitagliptin were analyzed using noncompartmental methods to calculate pharmacokinetic parameters.

Compound	Insulin AUEC0-4h, GMR (%) (insulin)	Insulin CEav, GMR (%) (insulin)	Insulin CEmax, GMR (%) (insulin)	Glucose AUEC0-4h, Mean (SD) (glucose)	Glucose CEav, Mean (SD) (glucose)	Glucose CEmax, Mean (SD) (glucose)	Glucose AUEC0-4h, GMR (%) (glucose)	Glucose CEav, GMR (%) (glucose)	Glucose CEmax, GMR (%) (glucose)	C-peptide CEmax, Mean (SD) (C-peptide) [ng/mL]	C-peptide AUEC0-4h, GMR (%) (C-peptide)	C-peptide CEav, GMR (%) (C-peptide)	C-peptide CEmax, GMR (%) (C-peptide)	also measured
CC(C)C[C@@H](C(=O)Nc1ccn(C[C@@H](O)CO)n1)N1CC(Oc2ccccc2Cl)=CC1=O [Dorzagliatin, (S)-2-(4-(2-chlorophenoxy)-2-oxo-2,5-dihydro-1H-pyrrol-1-yl)-N-(1-((R)-2,3-dihydroxypropyl)-1H-pyrazol-3-yl)-4-methylpentanamide]	159	159	146	339 (124) h · mg/dL	84.8 (31) mg/dL	163 (39) mg/dL	69	69	83	4.2	143	143	145	Percent ratio of geometric means (GMR) of dorzagliatin Cmax ([1]; dorzagliatin in combination with sitagliptin vs dorzagliatin alone, 90% CI: 87, 120): 102%; Percent GMR of dorzagliatin AUC0-24h ([1]; dorzagliatin in combination with sitagliptin vs dorzagliatin alone, 90% CI: 96, 105): 100%; AUC(0-t) ([1]; dorzagliatin 75 mg BID alone (Day 15), read-out: Least squares geometric mean AUC0-24h of plasma dorzagliatin): 6570 ng·h/mL; Cmax ([1]; dorzagliatin 75 mg BID alone (Day 15), read-out: Least squares geometric mean Cmax of plasma dorzagliatin): 814 ng/mL; AUC(0-t) ([1]; dorzagliatin 75 mg BID in combination with sitagliptin 100 mg QD (Day 10), read-out: Least squares geometric mean AUC0-24h of plasma dorzagliatin): 6590 ng·h/mL; Cmax ([1]; dorzagliatin 75 mg BID in combination with sitagliptin 100 mg QD (Day 10), read-out: Least squares geometric mean Cmax of plasma dorzagliatin): 833 ng/mL
N[C@@H](CC(=O)N1CCn2c(nnc2C(F)(F)F)C1)Cc1cc(F)c(F)cc1F [Sitagliptin, (R)-3-amino-1-(3-(trifluoromethyl)-5,6-dihydro-[1,2,4]triazolo[4,3-a]pyrazin-7(8H)-yl)-4-(2,4,5-trifluorophenyl)butan-1-one]	110	110	125	378 (88) h · mg/dL	94.5 (22) mg/dL	165 (35) mg/dL	65	65	87	5.1	119	119	125	AUC(0-t) ([1]; sitagliptin 100 mg QD alone (Day 5), read-out: Least squares geometric mean AUC0-24h of plasma sitagliptin): 2940 ng·h/mL; Cmax ([1]; sitagliptin 100 mg QD alone (Day 5), read-out: Least squares geometric mean Cmax of plasma sitagliptin): 410 ng/mL; AUC(0-t) ([1]; sitagliptin 100 mg QD in combination with dorzagliatin 75 mg BID (Day 10), read-out: Least squares geometric mean AUC0-24h of plasma sitagliptin): 2720 ng·h/mL; Cmax ([1]; sitagliptin 100 mg QD in combination with dorzagliatin 75 mg BID (Day 10), read-out: Least squares geometric mean Cmax of plasma sitagliptin): 403 ng/mL; Percent GMR of sitagliptin Cmax ([1]; sitagliptin in combination with dorzagliatin vs sitagliptin alone, 90% CI: 84, 115): 98%; Percent GMR of sitagliptin AUC0-24h ([1]; sitagliptin in combination with dorzagliatin vs sitagliptin alone, 90% CI: 86, 100): 93%
